Assays:
[1] = target: T1, μ-calpain (derived from human red blood cells) (Homo sapiens, UniProt P07384); test: Measurement of inhibitory activity against μ-calpain; format: biochemical; details: casein substrate, 30° C., 60 minutes; read-out: enzyme inhibitory activities (μM) μ-calpain
T1 construct: derived from human red blood cells; purchased Cosmo Bio Co., Ltd; host or cells: human red blood cells (tissue-purified)
T1 sequence (P07384 1-714): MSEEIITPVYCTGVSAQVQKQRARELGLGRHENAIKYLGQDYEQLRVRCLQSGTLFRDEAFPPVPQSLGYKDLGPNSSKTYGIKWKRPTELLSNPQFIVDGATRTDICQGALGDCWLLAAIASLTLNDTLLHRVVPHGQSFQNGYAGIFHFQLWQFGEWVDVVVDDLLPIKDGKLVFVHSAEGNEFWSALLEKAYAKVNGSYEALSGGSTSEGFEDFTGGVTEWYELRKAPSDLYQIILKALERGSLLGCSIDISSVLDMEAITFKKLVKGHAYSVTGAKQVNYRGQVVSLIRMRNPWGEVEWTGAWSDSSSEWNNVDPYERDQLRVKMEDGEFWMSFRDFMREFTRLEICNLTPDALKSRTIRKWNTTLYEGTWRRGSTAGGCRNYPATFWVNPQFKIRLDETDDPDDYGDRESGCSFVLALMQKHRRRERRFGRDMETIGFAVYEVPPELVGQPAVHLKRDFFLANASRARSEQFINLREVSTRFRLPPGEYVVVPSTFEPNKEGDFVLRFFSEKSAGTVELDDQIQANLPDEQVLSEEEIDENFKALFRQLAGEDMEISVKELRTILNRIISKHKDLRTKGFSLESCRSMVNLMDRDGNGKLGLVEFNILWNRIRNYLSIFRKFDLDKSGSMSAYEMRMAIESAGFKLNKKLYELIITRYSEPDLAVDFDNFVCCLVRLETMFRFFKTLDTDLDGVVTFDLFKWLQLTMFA
T1 sequence (P04632 1-268 partner): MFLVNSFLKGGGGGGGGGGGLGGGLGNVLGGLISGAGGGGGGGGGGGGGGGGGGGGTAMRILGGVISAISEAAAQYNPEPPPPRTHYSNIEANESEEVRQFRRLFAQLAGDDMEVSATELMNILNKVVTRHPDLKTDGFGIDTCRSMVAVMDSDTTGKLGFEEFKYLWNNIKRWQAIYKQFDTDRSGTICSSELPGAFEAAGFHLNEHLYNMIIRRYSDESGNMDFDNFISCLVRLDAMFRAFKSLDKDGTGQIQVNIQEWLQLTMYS
Description: The inhibitory activity against μ-calpain and m-calpain was assayed according to a published method (Anal. Biochem. 1993, vol. 208, p. 387-392). More specifically, 200 μL of a reaction solution containing 0.5 mg/mL casein, 50 mM Tris-HCl buffer (pH 7.4), 20 mM dithiothreitol and 1.0 nmol μ-calpain (derived from human red blood cells, Cosmo Bio Co., Ltd.) or m-calpain (derived from porcine kidney, Cosmo Bio Co., Ltd.) was added to individual 2.5 μL portions of DMSO solution containing a varying concentration of a test sample in a 96-well plate. Then, 50 μL of 20 mM aqueous calcium chloride was added thereto, and reaction was performed at 30° C. for 60 minutes. 100 μL of the reaction solution was transferred to another 96-well plate, and purified water (50 μL) and 50% aqueous solution (100 μL) of Protein Assay Dye Reagent (available from Bio-Rad Laboratories, Inc.; catalogue No. 500-600) were added thereto. The reaction mixture was allowed to stand at room temperature for 15 minutes, and its absorbance was measured at 595 nm. The absorbance of a reaction mixture prepared in the same manner as mentioned above, except that a DMSO solution containing no sample was used as a control value; and the absorbance of a reaction mixture prepared in the same manner as mentioned above, except that a 1 mM aqueous EDTA solution (50 μL) was used in place of 20 mM aqueous calcium chloride, was used as a blank value. […] Inhibition rate (%){1−(measured value−blank test value)/(control value−blank test value)}×100
The concentrations (IC50) are shown in Table 1 as enzyme (calpain) inhibitory activities (μM).

Compound	melting point	IC50 [1]
COCCOC(=O)N[C@@H](CC(C)C)C(=O)N[C@@H](CCc1ccccc1)C(=O)C(=O)NC1CC1 [compound 15, ((1S)-1-((((1S)-2,3-Dioxo-3-cyclopropylamino-1-(phenylethyl)propyl)amino)carbonyl)-3-methylbutyl)carbamic acid 2-methoxyethyl ester]	109.7 to 111.1 °C	–
COCCOC(=O)N[C@@H](CC(C)C)C(=O)N[C@@H](Cc1ccccc1)C(=O)C(=O)NCC(F)(F)F [compound 10, ((1S)-1-((((1S)-1-Benzyl-2,3-dioxo-3-(2,2,2-trifluoroethylamino)propyl)amino)carbonyl)-3-methylbutyl)carbamic acid 2-methoxyethyl ester]	152.5 to 153.9 °C	–
COCCNC(=O)C(=O)[C@H](Cc1ccccc1)NC(=O)[C@H](CC(C)C)NC(=O)OCCOC [compound 12, ((1S)-1-((((1S)-1-Benzyl-2,3-dioxo-3-(2-methoxyethylamino)propyl)amino)carbonyl)-3-methylbutyl)carbamic acid 2-methoxyethyl ester]	127 to 127.9 °C	–
CCNC(=O)C(=O)[C@H](Cc1ccccc1)NC(=O)[C@H](CC(C)C)NC(=O)OCCOC [compound 1, ((1S)-1-((((1S)-1-Benzyl-2,3-dioxo-3-(ethylamino)propyl)amino)carbonyl)-3-methylbutyl) carbamic acid 2-methoxyethyl ester]	138 to 138.3 °C	–
CC(C)C[C@H](NC(=O)O[C@H]1CCOC1)C(=O)N[C@@H](Cc1ccccc1)C(=O)C(=O)NC1CC1 [compound 5, ((1S)-1-((((1S)-1-Benzyl-3-(cyclopropylamino)-2,3-dioxopropyl)amino)carbonyl)-3-methylbutyl)carbamic acid (3S)-tetrahydrofuran-3-yl ester]	169.2 to 170.5 °C	–
COCCOC(=O)N[C@@H](CC(C)C)C(=O)N[C@@H](Cc1ccccc1)C(=O)C(=O)NC1CC1 [compound 4, ((1S)-1-((((1S)-1-Benzyl-2,3-dioxo-3-(cyclopropylamino)propyl)amino)carbonyl)-3-methylbutyl)carbamic acid 2-methoxyethyl ester]	112.4 to 113.5 °C	0.11 µM
COCCOCCOCCOC(=O)N[C@@H](CC(C)C)C(=O)N[C@@H](Cc1ccccc1)C(=O)C(=O)NC1CC1 [compound 18, ((1S)-1-((((1S)-1-Benzyl-2,3-dioxo-3-(cyclopropylamino)propyl)amino)carbonyl)-3-methylbutyl)carbamic acid 8-methoxy-3,6-dioxaoctyl ester]	–	0.19 µM
CCNC(=O)C(=O)[C@H](CCc1ccccc1)NC(=O)[C@H](CC(C)C)NC(=O)OCCOC [compound 13, ((1S)-1-((((1S)-2,3-Dioxo-3-ethylamino-1-(phenylethyl)propyl)amino)carbonyl)-3-methylbutyl)carbamic acid 2-methoxyethyl ester]	119.1 to 120.4 °C	–
COCCOC(=O)N[C@@H](CC(C)C)C(=O)N[C@@H](Cc1ccccc1)C(=O)C(=O)NC1CCC1 [compound 8, ((1S)-1-((((1S)-1-Benzyl-2,3-dioxo-3-(cyclobutylamino)propyl)amino)carbonyl)-3-methylbutyl)carbamic acid 2-methoxyethyl ester]	114.2 to 115.3 °C	–
CCNC(=O)C(=O)[C@H](Cc1ccccc1)NC(=O)[C@H](CC(C)C)NC(=O)O[C@H]1CCOC1 [compound 2, ((1S)-1-((((1S)-1-Benzyl-2,3-dioxo-3-(ethylamino)propyl)amino)carbonyl)-3-methylbutyl)carbamic acid (3S)-tetrahydrofuran-3-yl ester]	158.9 to 160.7 °C	–
COCCOCCOC(=O)N[C@@H](CC(C)C)C(=O)N[C@@H](CC(C)C)C(=O)C(=O)NCCOc1ccccc1 [compound 22, ((1S)-1-((((1S)-2,3-Dioxo-1-(2-methylpropyl)-3-(2-phenoxyethyl)aminopropyl)amino)carbonyl)-3-methylbutyl) carbamic acid 5-methoxy-3-oxapentyl ester]	53.3 to 54.1 °C	–
CC(C)C[C@H](NC(=O)O[C@H]1CCOC1)C(=O)N[C@@H](CCc1ccccc1)C(=O)C(=O)NC1CC1 [compound 16]	115.8 to 116.2 °C	–
CCNC(=O)C(=O)[C@H](Cc1ccccc1)NC(=O)[C@H](CC(C)C)NC(=O)OC1CCOCC1 [compound 3, ((1S)-1-((((1S)-1-Benzyl-2,3-dioxo-3-(ethylamino)propyl)amino)carbonyl)-3-methylbutyl)carbamic acid tetrahydro-4H-pyran-4-yl ester]	140 to 141.8 °C	–
CC(C)C[C@H](NC(=O)OC1CCOCC1)C(=O)N[C@@H](Cc1ccccc1)C(=O)C(=O)NC1CC1 [compound 6, ((1S)-1-((((1S)-1-Benzyl-3-cyclopropylamino-2,3-dioxopropyl)amino)carbonyl)-3-methylbutyl)carbamic acid tetrahydro-4H-pyran-4-yl ester]	137 to 138.2 °C	–
CCNC(=O)C(=O)[C@H](CCc1ccccc1)NC(=O)[C@H](CC(C)C)NC(=O)O[C@H]1CCOC1 [compound 14, ((1S)-1-((((1S)-2,3-Dioxo-3-ethylamino-1-(phenylethyl)propyl)amino)carbonyl)-3-methylbutyl)carbamic acid (3S)-tetrahydrofuran-3-yl ester]	111.9 to 114.5 °C	–
CCCCNC(=O)C(=O)[C@H](Cc1ccccc1)NC(=O)[C@H](CC(C)C)NC(=O)OCCOC [compound 9, ((1S)-1-((((1S)-1-Benzyl-3-butylamino-2,3-dioxopropyl)amino)carbonyl)-3-methylbutyl)carbamic acid 2-methoxyethyl ester]	94 to 95.2 °C	–
COCCOC(=O)N[C@@H](CC(C)C)C(=O)N[C@@H](CC(C)C)C(=O)C(=O)NCCOc1ccccc1 [compound 21, ((1S)-1-((((1S)-2,3-Dioxo-1-(2-methylpropyl)-3-(2-phenoxyethyl)aminopropyl)amino)carbonyl)-3-methylbutyl)carbamic acid 2-methoxyethyl ester]	99.7 to 100.5 °C	–
COCCOC(=O)N[C@@H](CC(C)C)C(=O)N[C@@H](Cc1ccccc1)C(=O)C(=O)NC1Cc2ccccc2C1 [compound 11, ((1S)-1-((((1S)-1-Benzyl-2,3-dioxo-3-(2-indanylamino)propyl)amino)carbonyl)-3-methylbutyl)carbamic acid 2-methoxyethyl ester]	141.9 to 143.5 °C	–
CCCNC(=O)C(=O)[C@H](Cc1ccccc1)NC(=O)[C@H](CC(C)C)NC(=O)OCCOC [compound 7, ((1S)-1-((((1S)-1-Benzyl-2,3-dioxo-3-(propylamino)propyl)amino)carbonyl)-3-methylbutyl)carbamic acid 2-methoxyethyl ester]	108.8 to 109.9 °C	–

From patent US9539298B2, “Lissencephaly therapeutic agent” (OSAKA CITY UNIVERSITY, priority 2010, dated 2017)
